Source: patent EP1388586A2, “Identification of broadly reactive DR restricted epitopes” (priority 1998, dated 1999)
Read-outs that look alike come from different tables or passages of the source. Square brackets hold non-standard residues; d marks the D form. Ends that are not written are not given here. Peptide text beside a SMILES is read from it.

Tests used:
DRB1*0701 (DR7) = DRB1*0701 (DR7) (Homo sapiens, UniProt P01903+P01911, A100R/A102G/A103Q/D57E/D86V/E43K/F76Y/K127E/L162R/M171V/P40G/Q125H/Q99D/R33Q/R42Y/R54Q/S133A/S66F/T210M/V115G/Y107V/Y59L/Y89S); assay: Class II peptide-binding assay, DR7;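 also: unlabeled peptides compete with an iodinated probe peptide for binding to affinity-purified HLA-DR at neutral pH, DR amount titered to bind a small tracer fraction, IC50 approximating Kd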
DRB10404 (DR4w14) = target: T1, DRB10404 (DR4w14) (Homo sapiens, UniProt P01903+P01911, A100R/A169T/F76Y/I96L/K127E/L162R/M171V/N62H/P40V/Q125Y/R42H/S133A/S149N/S66Y/V209L/W38E); assay: Class II peptide-binding assay, DR4w14;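 also: unlabeled peptides compete with a radiolabeled probe for binding to affinity-purified HLA-DR, neutral pH, class II amount titrated to bind a small fraction of label, IC50 approximates Kd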
T1 construct: used as sources of human HLA class II molecules; endogenous in cells; host or cells: BIN40 (EBV-transformed homozygous B cell line)

DRB1*0401 (DR4w4) = target: T2, DRB1*0401 (DR4w4) (Homo sapiens, UniProt P01903+P01911, A100K/A169T/F76Y/I96L/K127E/L162R/M171V/N62H/P40V/Q125Y/R42H/S133A/S149N/S66Y/V115G/V209L/W38E); assay: Class II peptide-binding assay, DR4w4;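 also: unlabeled test peptides compete with a radiolabeled probe peptide for binding to affinity-purified HLA-DR, with DR amount titrated to capture a small fraction of label, IC50 approximating Kd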
T2 construct: used as sources of human HLA class II molecules; endogenous in cells; host or cells: PREISS (EBV-transformed homozygous B cell line)

DRB5*0101 (DR2w2a) = target: T3, DRB5*0101 (DR2w2a) (Homo sapiens, UniProt P01903+Q30154); assay: Class II peptide-binding assay, DR2w2a (DR2w2B2);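 also: competitive binding assay: unlabeled peptide inhibiting binding of a radiolabeled probe peptide to purified DR molecules at pH 7.0, IC50 approximating Kd, lower means stronger binding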
T3 construct: used as sources of human HLA class II molecules; endogenous in cells; host or cells: GM3107 (EBV-transformed homozygous B cell line)

DRB1*0101 (DR1) = target: T4, DRB1*0101 (DR1) (Homo sapiens, UniProt P01903+P01911, A100R/D57E/F55L/F60I/F76Y/I96L/L162R/M171V/P40L/Q125E/R42F/V115G/Y59C); assay: Class II peptide-binding assay, DR1;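 also: competition assay: unlabeled test peptides inhibit binding of a radiolabeled probe peptide to purified DR, with half-maximal inhibition taken as an approximate dissociation constant Kd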
T4 construct: used as sources of human HLA class II molecules; endogenous in cells; host or cells: LG2 (EBV-transformed homozygous B cell line)

DRB1*1101 (DR5w11) = target: T5, DRB1*1101 (DR5w11) (Homo sapiens, UniProt P01903+P01911, A100R/A169T/A87E/I96F/K41T/L162R/M171V/P40S/Q125H/Q178H/Q39Y/Q99D/R42S/S66Y/T262R/V115G/W38E); assay: Class II peptide-binding assay, DR5w11;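 also: competition by unlabeled test peptide against iodinated probe peptide binding to affinity-purified HLA-DR, class II amount titrated beforehand, half-maximal inhibitory concentration read as approximate Kd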
T5 construct: used as sources of human HLA class II molecules; endogenous in cells; host or cells: SWEIG (EBV-transformed homozygous B cell line)

[1] = read-out: DR7 nM (In IC50 Format), purified HLA DR7
[2] = read-out: DR4w14 nM (In IC50 Format), purified HLA DR4w14
[3] = read-out: DR4w4 nM (In IC50 Format), purified HLA DR4w4
[4] = read-out: DR2w2B2 nM (In IC50 Format), purified HLA DR2w2β2
[5] = read-out: DR1 nM (In IC50 Format), purified HLA DR1
[6] = read-out: DR5w11 nM (In IC50 Format), purified HLA DR5w11
[7] = read-out: DR7 nM, Table VIII, In IC50 Format
[8] = read-out: DR4w14 nM, Table VIII, In IC50 Format
[9] = read-out: DR4w4 nM, Table VIII, In IC50 Format
[10] = read-out: DR2w2B2 nM, Table VIII, In IC50 Format
[11] = read-out: DR1 nM, Table VIII, In IC50 Format
[12] = read-out: DR5w11 nM, Table VIII, In IC50 Format

T5 sequence (P01903 26-254, other chains not shown): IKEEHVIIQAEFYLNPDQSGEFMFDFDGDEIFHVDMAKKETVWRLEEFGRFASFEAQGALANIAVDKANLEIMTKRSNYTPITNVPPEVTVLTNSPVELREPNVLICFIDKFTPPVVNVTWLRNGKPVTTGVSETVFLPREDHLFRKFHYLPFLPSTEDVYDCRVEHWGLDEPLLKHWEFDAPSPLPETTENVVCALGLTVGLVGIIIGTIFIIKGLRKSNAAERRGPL

IC50 (DRB1*0701 (DR7); [1]) [nM] | IC50 (DRB10404 (DR4w14); [2]) [nM] | IC50 (DRB1*0401 (DR4w4); [3]) [nM] | IC50 (DRB5*0101 (DR2w2a); [4]) [nM] | IC50 (DRB1*0101 (DR1); [5]) [nM] | IC50 (DRB1*1101 (DR5w11); [6]) [nM] | Compound | IC50 (DRB1*0701 (DR7); [7]) [nM] | IC50 (DRB10404 (DR4w14); [8]) [nM] | IC50 (DRB1*0401 (DR4w4); [9]) [nM] | IC50 (DRB5*0101 (DR2w2a); [10]) [nM] | IC50 (DRB1*0101 (DR1); [11]) [nM] | IC50 (DRB1*1101 (DR5w11); [12]) [nM] | further results
694 | 1430 | 2 | 105 | 1.7 | 25.6 | C[C@H](NC(=O)[C@H](C)NC(=O)[C@H](C)NC(=O)[C@H](Cc1ccc(O)cc1)NC(=O)[C@H](C)NC(=O)[C@@H](C)N)C(=O)N[C@@H](C)C(=O)N[C@H](C(=O)N[C@@H](C)C(=O)N[C@@H](CCCCN)C(=O)N[C@@H](C)C(=O)N[C@@H](C)C(=O)N[C@H](C)C(N)=O)[C@@H](C)O [Peptide 762.02] (H-[dA]AYAAAATAKAA[dA]-NH2) |  |  |  |  |  |  | 
7.6 | 3330 | 30 | 1.2 | 2.3 | 556 | AAFAAAAAQRLFA-NH2 [Peptide 761.01] |  |  |  |  |  |  | 

Further lines, the compound ahead of its results:

Compound | IC50 (DRB1*0701 (DR7); [1]) [nM] | IC50 (DRB10404 (DR4w14); [2]) [nM] | IC50 (DRB1*0401 (DR4w4); [3]) [nM] | IC50 (DRB5*0101 (DR2w2a); [4]) [nM] | IC50 (DRB1*0101 (DR1); [5]) [nM] | IC50 (DRB1*1101 (DR5w11); [6]) [nM] | IC50 (DRB1*0701 (DR7); [7]) [nM] | IC50 (DRB10404 (DR4w14); [8]) [nM] | IC50 (DRB1*0401 (DR4w4); [9]) [nM] | IC50 (DRB5*0101 (DR2w2a); [10]) [nM] | IC50 (DRB1*0101 (DR1); [11]) [nM] | IC50 (DRB1*1101 (DR5w11); [12]) [nM] | further results
CC[C@H](C)[C@H](NC(=O)[C@H](C)NC(=O)CNC(=O)[C@H](Cc1ccccc1)NC(=O)[C@H](CC(N)=O)NC(=O)[C@H](CC(N)=O)NC(=O)[C@H](N)CO)C(=O)N[C@@H](CC(C)C)C(=O)N[C@@H](CO)C(=O)N[C@@H](CO)C(=O)N[C@H](C(=O)N[C@@H](CC(N)=O)C(=O)N[C@H](C(=O)NCC(N)=O)C(C)C)[C@@H](C)O [Peptide 735.05] (H-[dS]NNFGAILSSTNVG-NH2) | 12500 | 376 | 273 | 2860 | 48.5 | 20000 |  |  |  |  |  |  | 
CC(C)C[C@H](NC(=O)[C@@H](NC(=O)[C@@H](NC(=O)[C@H](CCC(N)=O)NC(=O)[C@H](CCCNC(=N)N)NC(=O)[C@H](CCC(N)=O)NC(=O)[C@H](Cc1ccccc1)NC(=O)[C@H](C)NC(=O)[C@H](C)NC(=O)[C@H](N)Cc1ccc(O)cc1)[C@@H](C)O)[C@@H](C)O)C(=O)N[C@@H](CCCCN)C(=O)N[C@@H](C)C(=O)N[C@@H](C)C(=O)N[C@H](C)C(N)=O [Peptide 781.16] (H-[dY]AAFQRQTTLKAA[dA]-NH2) | 2780 | 7 | 3.8 | 155 | 3 | 10 |  |  |  |  |  |  | 
CC[C@H](C)[C@H](NC(=O)CNC(=O)[C@@H](NC(=O)[C@H](Cc1ccccc1)NC(=O)[C@H](CCCCN)NC(=O)[C@H](CO)NC(=O)[C@H](CC(N)=O)NC(=O)[C@H](C)NC(=O)[C@H](CCCCN)NC(=O)[C@@H](NC(=O)[C@H](Cc1ccc(O)cc1)NC(=O)[C@@H](N)CCC(N)=O)[C@@H](C)CC)[C@@H](C)CC)C(=O)N[C@H](C(=O)N[C@@H](CCC(=O)O)C(=O)N[C@@H](CC(C)C)C(=O)N[C@@H](CCCCN)C(=O)N[C@@H](CCCCN)C(N)=O)[C@@H](C)O [Peptide 812.01] |  |  |  |  |  |  |  |  |  |  |  |  | IC50 (DRB1*0701 (DR7); purified HLA DR7, read-out: DR7 nM (In IC50 Format)): 357 nM; IC50 (DRB10404 (DR4w14); purified HLA DR4w14, read-out: DR4w14 nM (In IC50 Format)): 16700 nM; IC50 (DRB1*0401 (DR4w4); purified HLA DR4w4, read-out: DR4w4 nM (In IC50 Format)): 409 nM; IC50 (DRB5*0101 (DR2w2a); purified HLA DR2w2β2, read-out: DR2w2B2 nM (In IC50 Format)): 16 nM; IC50 (DRB1*0101 (DR1); purified HLA DR1, read-out: DR1 nM (In IC50 Format)): 80.6 nM; IC50 (DRB1*1101 (DR5w11); purified HLA DR5w11, read-out: DR5w11 nM (In IC50 Format)): 28.6 nM
C[C@H](NC(=O)[C@H](C)NC(=O)[C@H](Cc1ccccc1)NC(=O)[C@H](C)NC(=O)[C@@H](C)N)C(=O)N[C@@H](C)C(=O)N[C@@H](C)C(=O)N1CCC[C@H]1C(=O)N[C@@H](CCCCN)C(=O)N[C@@H](C)C(=O)N[C@@H](C)C(=O)N[C@@H](C)C(=O)N[C@H](C)C(N)=O [Peptide 828.05] (H-[dA]AFAAAAPKAAA[dA]-NH2) |  |  |  |  |  |  | 1320 | 6250 | 155 | 15.6 | 1.9 | 105 | 
C[C@H](NC(=O)[C@H](N)Cc1ccc(O)cc1)C(=O)N[C@@H](C)C(=O)N[C@@H](Cc1ccccc1)C(=O)N[C@@H](C)C(=O)N[C@@H](C)C(=O)N[C@@H](C)C(=O)N[C@@H](C)C(=O)N1CCC[C@H]1C(=O)N[C@@H](CCCCN)C(=O)N[C@@H](C)C(=O)N[C@@H](C)C(=O)N[C@@H](C)C(=O)N[C@H](C)C(N)=O [Peptide 828.06] (H-[dY]AAFAAAAPKAAA[dA]-NH2) |  |  |  |  |  |  | 1920 | 10000 | 214 | 19 | 2 | 235 | 
C[C@H](NC(=O)[C@H](N)Cc1ccc(O)cc1)C(=O)N[C@@H](C)C(=O)N[C@@H](Cc1ccccc1)C(=O)N[C@@H](C)C(=O)N[C@@H](C)C(=O)N[C@@H](C)C(=O)N[C@@H](C)C(=O)N[C@H](C(=O)N[C@@H](CCCCN)C(=O)N[C@@H](C)C(=O)N[C@@H](C)C(=O)N[C@@H](C)C(=O)N[C@H](C)C(N)=O)[C@@H](C)O [Peptide 828.10] (H-[dY]AAFAAAATKAAA[dA]-NH2) |  |  |  |  |  |  | 1250 | 111 | 3.4 | 19.8 | 1.9 | 22.2 | 
CC(C)C[C@H](NC(=O)[C@H](CCCCN)NC(=O)[C@H](CC(C)C)NC(=O)[C@@H](NC(=O)[C@H](CC(N)=O)NC(=O)[C@H](CCC(N)=O)NC(=O)[C@H](CCCCN)NC(=O)[C@@H](NC(=O)[C@H](Cc1ccc(O)cc1)NC(=O)[C@H](CCCCN)NC(=O)[C@@H]1CCCN1C(=O)[C@@H](N)CS)C(C)C)[C@@H](C)O)C(=O)N[C@@H](C)C(=O)N[C@H](C(=O)NCC(=O)O)[C@@H](C)O [Peptide 852.01] |  |  |  |  |  |  | 65.8 | 7140 | 30 | 2.9 | 31.6 | 39.2 | 
